Measurements reported in ChEMBL document CHEMBL1149548, “Synthesis, SAR, and X-ray structure of novel potent DPPIV inhibitors: oxadiazolyl ketones” (Bioorg Med Chem Lett, 2007).
Each block holds one molecule with its values, some of them ahead of it.

Columns and labels:
Dipeptidyl peptidase 2 = Dipeptidyl peptidase 2 (Homo sapiens, UniProt Q9UHL4); assay: Inhibition of DPP2
Dipeptidyl peptidase 8 = Dipeptidyl peptidase 8 (Homo sapiens, UniProt Q6V1X1); assay: Inhibition of DPP8
Rattus norvegicus [1] = assay: Inhibition of basal plasma DPP4 activity in Sprague-Dawley rat at 10 mg/kg after 24 hrs; conditions: read-out: Inhibition
Rattus norvegicus [2] = assay: Inhibition of basal plasma DPP4 activity in Sprague-Dawley rat at 0.03 mg/kg after 24 hrs; conditions: read-out: Inhibition
[3] = Bioavailability in monkey at 5 mg/kg, po; format: ADME, organism-based, Macaca mulatta; conditions: rhesus monkey, in vivo
[4] = Volume of distribution at steady state in rat at 5 mg/kg, iv or 5 mg/kg, po; format: ADME, organism-based; conditions: in vivo, read-out: Vdss
[5] = Half life in dog at 5 mg/kg, po; format: ADME, organism-based, Canis lupus familiaris; design: dose 5 mg/kg, route oral; conditions: in vivo
[6] = Bioavailability in dog at 5 mg/kg, po; format: ADME, organism-based, Canis lupus familiaris; conditions: in vivo
[7] = Cmax in monkey at 5 mg/kg, po; format: ADME, organism-based, Macaca mulatta; design: dose 5 mg/kg, route oral; conditions: rhesus monkey, in vivo
[8] = Volume of distribution at steady state in dog at 5 mg/kg, iv or 5 mg/kg, po; format: ADME, organism-based, Canis lupus familiaris; conditions: in vivo, read-out: Vdss
[9] = Half life in rat at 5 mg/kg, po; format: ADME, organism-based; design: dose 5 mg/kg, route oral; conditions: in vivo
Rattus norvegicus [10] = assay: Inhibition of basal plasma DPP4 activity in Sprague-Dawley rat at 0.1 mg/kg after 1 hr; conditions: read-out: Inhibition
Rattus norvegicus [11] = assay: Inhibition of basal plasma DPP4 activity in Sprague-Dawley rat at 1 mg/kg after 24 hrs; conditions: read-out: Inhibition
[12] = Volume of distribution at steady state in monkey at 5 mg/kg, iv or 5 mg/kg, po; format: ADME, organism-based, Macaca mulatta; conditions: rhesus monkey, in vivo, read-out: Vdss
[13] = Cmax in rat at 5 mg/kg, po; format: ADME, organism-based; design: dose 5 mg/kg, route oral; conditions: in vivo
[14] = Plasma clearance in rat at 5 mg/kg, iv or 5 mg/kg, po; format: ADME, organism-based
Rattus norvegicus [15] = assay: Inhibition of basal plasma DPP4 activity in Sprague-Dawley rat at 0.03 mg/kg after 1 hr; conditions: read-out: Inhibition
Rattus norvegicus [16] = assay: Inhibition of basal plasma DPP4 activity in Sprague-Dawley rat at 0.1 mg/kg after 24 hrs; conditions: read-out: Inhibition
[17] = Plasma clearance in dog at 5 mg/kg, iv or 5 mg/kg, po; format: ADME, organism-based, Canis lupus familiaris
Rattus norvegicus [18] = assay: Inhibition of basal plasma DPP4 activity in Sprague-Dawley rat at 1 mg/kg after 1 hr; conditions: read-out: Inhibition
[19] = Bioavailability in rat at 5 mg/kg, po; format: ADME, organism-based; conditions: in vivo
Rattus norvegicus [20] = assay: Inhibition of basal plasma DPP4 activity in Sprague-Dawley rat at 10 mg/kg after 1 hr; conditions: read-out: Inhibition
[21] = Plasma clearance in monkey at 5 mg/kg, iv or 5 mg/kg, po; format: ADME, organism-based, Macaca mulatta; conditions: rhesus monkey
[22] = Half life in monkey at 5 mg/kg, po; format: ADME, organism-based, Macaca mulatta; design: dose 5 mg/kg, route oral; conditions: rhesus monkey, in vivo

Sequence of Dipeptidyl peptidase 8 (Q6V1X1 whole entry): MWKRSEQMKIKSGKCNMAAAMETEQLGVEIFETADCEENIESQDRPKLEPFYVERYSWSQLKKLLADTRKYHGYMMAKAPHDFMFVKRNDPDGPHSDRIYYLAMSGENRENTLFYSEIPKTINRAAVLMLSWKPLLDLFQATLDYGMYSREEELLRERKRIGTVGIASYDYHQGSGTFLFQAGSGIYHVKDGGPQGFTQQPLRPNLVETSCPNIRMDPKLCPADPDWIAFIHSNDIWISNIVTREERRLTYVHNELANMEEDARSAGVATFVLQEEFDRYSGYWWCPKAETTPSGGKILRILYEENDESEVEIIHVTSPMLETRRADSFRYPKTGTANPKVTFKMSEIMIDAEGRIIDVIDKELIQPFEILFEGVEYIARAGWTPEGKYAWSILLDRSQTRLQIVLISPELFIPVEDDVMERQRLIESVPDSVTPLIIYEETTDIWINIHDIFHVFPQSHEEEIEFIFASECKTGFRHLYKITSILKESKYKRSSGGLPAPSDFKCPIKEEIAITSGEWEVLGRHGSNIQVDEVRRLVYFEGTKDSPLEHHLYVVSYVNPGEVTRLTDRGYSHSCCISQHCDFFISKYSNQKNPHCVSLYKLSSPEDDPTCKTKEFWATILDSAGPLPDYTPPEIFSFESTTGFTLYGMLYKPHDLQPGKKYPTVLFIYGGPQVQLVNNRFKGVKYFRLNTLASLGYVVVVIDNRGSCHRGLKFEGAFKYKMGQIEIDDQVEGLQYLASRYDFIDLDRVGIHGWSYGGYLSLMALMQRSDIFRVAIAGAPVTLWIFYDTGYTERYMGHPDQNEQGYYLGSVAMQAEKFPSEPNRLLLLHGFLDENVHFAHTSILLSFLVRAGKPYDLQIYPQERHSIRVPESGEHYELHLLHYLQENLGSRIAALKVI

IC50 (Dipeptidyl peptidase 2): < 390 nM | IC50 (Dipeptidyl peptidase 8): < 390 nM
Structure (SMILES): CC(C)(C)NCC(=O)N1CCC[C@H]1C(=O)c1noc(-c2ccc(F)cc2)n1

bioavailability [3]: 35% | Vd [4]: 14 L/kg | half-life [5]: 1.47 h | bioavailability [6]: 87% | Cmax [7]: 210 ng/mL | IC50 (Dipeptidyl peptidase 2): 146000 nM | Vd [8]: 4.87 L/kg | half-life [9]: 4.15 h | Vd [12]: 2.42 L/kg | Cmax [13]: 30 ng/mL | clearance [14]: 241 mL/min/kg | clearance [17]: 71 mL/min/kg | bioavailability [19]: 39% | clearance [21]: 18 mL/min/kg | half-life [22]: 4.63 h
Structure (SMILES): CC(C)(CO)NCC(=O)N1C[C@@H](F)C[C@H]1C(=O)c1nnc(C(C)(C)C)o1
inhibition in vivo at 10 mg/kg (Rattus norvegicus [1]): 74% | inhibition in vivo at 0.03 mg/kg (Rattus norvegicus [2]): 76% | inhibition in vivo at 0.1 mg/kg (Rattus norvegicus [10]): 82% | inhibition in vivo at 1 mg/kg (Rattus norvegicus [11]): 50% | inhibition in vivo at 0.03 mg/kg (Rattus norvegicus [15]): 66% | inhibition in vivo at 0.1 mg/kg (Rattus norvegicus [16]): 82% | inhibition in vivo at 1 mg/kg (Rattus norvegicus [18]): 46% | inhibition in vivo at 10 mg/kg (Rattus norvegicus [20]): 68%

IC50 (Dipeptidyl peptidase 2): < 390 nM | IC50 (Dipeptidyl peptidase 8): < 390 nM
Structure (SMILES): Cc1cc(C)c(-c2nnc(C(=O)[C@@H]3CCCN3C(=O)CNC(C)(C)C)o2)c(C)c1

IC50 (Dipeptidyl peptidase 2): < 390 nM | IC50 (Dipeptidyl peptidase 8): < 390 nM
Structure (SMILES): CC(C)(C)NCC(=O)N1CCC[C@H]1C(=O)c1noc(C2(C)CCCCC2)n1

IC50 (Dipeptidyl peptidase 2): 97200 nM | IC50 (Dipeptidyl peptidase 8): < 390 nM
Structure (SMILES): CCC(C)(C)c1nnc(C(=O)[C@@H]2C[C@H](F)CN2C(=O)CNC(C)(C)C)o1

IC50 (Dipeptidyl peptidase 2): 8660 nM | IC50 (Dipeptidyl peptidase 8): < 390 nM
Structure (SMILES): CC(C)(C)NCC(=O)N1CCC[C@H]1C(=O)c1nnc(C2(C)CCCCC2)o1

Structure (SMILES): CC(C)(C)NCC(=O)N1CCC[C@H]1C(=O)c1nnc(C(C)(C)C)o1
IC50 (Dipeptidyl peptidase 2): > 10000 nM

IC50 (Dipeptidyl peptidase 2): < 390 nM | IC50 (Dipeptidyl peptidase 8): < 390 nM
Structure (SMILES): CC(C)(C)NCC(=O)N1C[C@@H](F)C[C@H]1C(=O)c1nnc(C2CCCCC2)o1
